Laboratory results from US5164381A, “Pharmacologically active 1,5-diaryl-3-substituted pyrazoles and method for synthesizing the same” (Ortho Pharmaceutical Corporation, priority 1991, dated 1992).
Where two headings read alike, the source gives them in different places.

Tests used:
Leukotriene B4 = assay: Immune complex-induced synovitis in the dog knee joint: leukotriene B4 levels; type: in vivo, Mongrel dogs
Procedure: (§1) The accuracy of the puncture was assured by the aspiration of clear, viscous synovial fluid (time 0 sample). The syringe was removed and immune complexes (see below) were injected into the synovial space. The synovial space was re-entered at various time intervals and synovial fluid was withdrawn. The volume of fluid was recorded and then added to 3.0 ml of 0.3% saline. A sample was removed and the number of cells present counted with the use of a hemocytometer and microscope to enumerate the total number of cells in the joint. The remaining sample was centrifuged at 1000×g for 10 minutes and the supernatant analyzed for prostaglandin E2 levels and leukotriene B4 levels.
(§2) To prepare the immune complex, two hundred milligrams of partially purified dog IgG was dissolved in 20 ml 0.9% sterile sodium chloride. The solution was clarified by centrifugation at 2230×G at 20° C. for 10 minutes. A 3 ml volume of the 10.0 mg/ml solution of dog IgG was mixed with 1 ml rabbit anti-dog IgG serum and incubated at room temperature for 20 minutes.
(§3) Four milliliters of saturated ammonium sulfate were added to the mixture to precipitate the complex and all free dog IgG and rabbit gamma globulin. The sample was then centrifuged (as above) and the pellet resuspended in 10 ml 0.9% sterile saline. One ml of this solution was injected into a knee joint.
(§4) Following the intra-articular administration of immune complexes synovial fluid samples were taken at 30 minutes, 1,2,4 and 24 hours, alternating knees for sampling (except at 24 hours when both knees were sampled).
(§5) The articular joint was entered and a zero hour synovial fluid sample was removed. 1 ml of immune complexes was injected into the synovial joint of both legs. […] Synovial fluid samples were taken at 30 minutes, 1, 2 and 4 hours. All samples were analyzed for total granulocyte count using a laser flow cytometer. Prostaglandin and leukotriene concentrations were determined with standard RIA techniques.

5-lipoxygenase (5-LO) = assay: Inhibition of 5-lipoxygenase (5-LO)
bronchospasm / LTB4 = assay: Arachidonic acid-induced bronchospasm and LTB4 blood levels in anesthetized guinea pigs; type: in vivo; details: administered orally, guinea pigs
Procedure: Intravenous administration of 10 mg/kg AA to anesthetized guinea pigs pretreated with indomethacin (10 mg/kg) and propranolol (0.1 mg/kg) results in a sustained bronchospasm which is associated with increased blood levels of LTB4. […] In the dog, intraarticular injection of rabbit anti-dog-dog IgG immune complexes into the knee joint results in an acute synovitis characterized by an influx of inflammatory cells into the joint space as well as an increase in synovial fluid levels of PGE2 and LTB4.

[1] = system: total cells in synovial fluid of dog knee joint; assay: Immune complex-induced synovitis in the dog knee joint: cellular infiltrate; type: in vivo, Mongrel dogs
Procedure: as §1, §2, §3, §4, §5

gastrointestinal = assay: Gastrointestinal side effects in dogs after one week; type: in vivo; details: doses up to 2700 mg/kg
Text: (§6) All NSAIDs are inhibitors of CO and their potency against this enzyme activity correlates well with clinical doses used in rheumatic diseases. There is also a correlation between CO inhibition (decreased PGE2) and the ability to induce gastric lesions in the fasted rat model. All NSAIDs induce at least some gastrointestinal lesions within their therapeutic range.

[2] = system: Lewis strain laboratory rats; assay: In vivo alleviation of inflammation: polyarthritis (adjuvant, Mycobacterium butyricum) in rats, inhibition of paw volume increase; details: Rattus norvegicus, po
in vivo = details: rat, in vivo
Text: as §6

gastrointestinal tract = assay: Ulcerogenicity in rats (gastric lesions, fasted rat model); details: rats
Text: as §6

cyclooxygenase (CO) = assay: Inhibition of cyclooxygenase (CO)
Prostaglandin E2 = assay: Immune complex-induced synovitis in the dog knee joint: prostaglandin E2 levels; type: in vivo, Mongrel dogs; details: for Prostaglandin E2 Levels: radioimmunoassay
Procedure: as §1, §2, §3, §4, §5

## COc1ccc(-n2nc(CCC(=O)N(C)O)cc2-c2ccc(Cl)cc2)cc1 [Compound 3, 3-[5-(4-Chlorophenyl)-1-(4-methoxyphenyl)-3-pyrazolyl]-N-hydroxy-N-methylpropanamide]
Leukotriene B4; 25 mg/kg p.o., 1 Hr
  Leukotriene B4: 3.00 ± 1.2 ng/ml Synovial Fluid
Leukotriene B4; 25 mg/kg p.o., 2 Hr
  Leukotriene B4: 4.60 ± 2.10 ng/ml Synovial Fluid
Leukotriene B4; 25 mg/kg p.o., 4 Hr
  Leukotriene B4: 1.20 ± 0.6 ng/ml Synovial Fluid
Leukotriene B4; 100 mg/kg orally, dog
  levels of LTB4 in the synovial fluid (in words): reduces
Leukotriene B4; 100 mg/kg p.o., 0.5 Hr
  % I (inhibition) of leukotriene B4: 25%
  Leukotriene B4: 0.93 ± 0.26 ng/ml Synovial Fluid
Leukotriene B4; 100 mg/kg p.o., 1 Hr
  % I (inhibition) of leukotriene B4: 69%
  Leukotriene B4: 0.80 ± 0.09 ng/ml Synovial Fluid
Leukotriene B4; 100 mg/kg p.o., 2 Hr
  % I (inhibition) of leukotriene B4: 39%
  Leukotriene B4: 2.46 ± 0.94 ng/ml Synovial Fluid
Leukotriene B4; 100 mg/kg p.o., 4 Hr
  % I (inhibition) of leukotriene B4: 37%
  Leukotriene B4: 0.88 ± 0.23 ng/ml Synovial Fluid
Leukotriene B4; administered orally, dogs
  inhibition of leukotriene production (in words): effective inhibitor of leukotriene production
Leukotriene B4; i.v. 25 mg/kg or orally, dog
  LTB4 levels (in words): significantly inhibits
5-lipoxygenase (5-LO)
  inhibition of 5-lipoxygenase (5-LO) (in words): inhibits both the cyclooxygenase (CO) and 5-lipoxygenase (5-LO) enzymes
Bronchospasm / LTB4
  inhibition of leukotriene production (in words): effective inhibitor of leukotriene production
[1]; 25 mg/kg p.o., 0.5 HR
  Cellular Infiltrate Total Cells (× 10^6): 0.12 ± 0.04 × 10^6
[1]; 25 mg/kg p.o., 1 HR
  Cellular Infiltrate Total Cells (× 10^6): 0.39 ± 0.19 × 10^6
[1]; 25 mg/kg p.o., 2 HR
  % I (inhibition) of total cells: 7.4%
  Cellular Infiltrate Total Cells (× 10^6): 5.74 ± 2.5 × 10^6
[1]; 25 mg/kg p.o., 4 HR
  % I (inhibition) of total cells: 6.5%
  Cellular Infiltrate Total Cells (× 10^6): 46.3 ± 27.9 × 10^6
[1]; 100 mg/kg orally, dog
  cellular infiltrate (in words): reduces the cellular infiltrate
[1]; 100 mg/kg p.o., 0.5 HR
  Cellular Infiltrate Total Cells (× 10^6): 0.26 ± 0.23 × 10^6
[1]; 100 mg/kg p.o., 1 HR
  Cellular Infiltrate Total Cells (× 10^6): 0.13 ± 0.07 × 10^6
[1]; 100 mg/kg p.o., 2 HR
  % I (inhibition) of total cells: 78%
  Cellular Infiltrate Total Cells (× 10^6): 1.35 ± 0.55 × 10^6
[1]; 100 mg/kg p.o., 4 HR
  % I (inhibition) of total cells: 55.2%
  Cellular Infiltrate Total Cells (× 10^6): 22.2 ± 6.6 × 10^6
[1]; i.v. 25 mg/kg or orally, dog
  total cell number / cellular infiltration (in words): significantly inhibits
gastrointestinal
  significant gastrointestinal side effects (in words): no significant gastrointestinal side effects
[2]; adjuvant rat, read-out: dose which inhibits the inflammatory response of the adjuvant rat by 50 percent (ED50)
  ED50: 3 mg/kg
[2]; rat, read-out: ED50 (effective dose to obtain a 50% inhibition of inflammation)
  ED50: 4.1 mg/kg
In vivo
  TD50: 173 mg/kg
  selectivity ratio: 58
Gastrointestinal tract
  ulcerogenicity in the gastrointestinal tract (in words): reduced ulcerogenic activity
Gastrointestinal tract; listed as compound 3
  ulcerogenicity in the gastrointestinal tract (in words): lack of ulcerogenicity in the gastrointestinal tract
Cyclooxygenase (CO)
  inhibition of cyclooxygenase (CO) (in words): inhibits both the cyclooxygenase (CO) and 5-lipoxygenase (5-LO) enzymes
Prostaglandin E2; 25 mg/kg p.o., 1 Hr
  Prostaglandin E2 Levels: 2.34 ± 1 ng/mL
Prostaglandin E2; 25 mg/kg p.o., 2 Hr
  % I (inhibition) of prostaglandin E2 levels: 38.2%
  Prostaglandin E2 Levels: 2.96 ± 0.92 ng/mL
Prostaglandin E2; 25 mg/kg p.o., 4 Hr
  % I (inhibition) of prostaglandin E2 levels: 44.6%
  Prostaglandin E2 Levels: 2.27 ± 0.76 ng/mL
Prostaglandin E2; 100 mg/kg orally, dog
  levels of PGE2 in the synovial fluid (in words): reduces
Prostaglandin E2; 100 mg/kg p.o., 0.5 Hr
  Prostaglandin E2 Levels: 1.8 ± 1.29 ng/mL
Prostaglandin E2; 100 mg/kg p.o., 1 Hr
  Prostaglandin E2 Levels: 1.5 ± 1.05 ng/mL
Prostaglandin E2; 100 mg/kg p.o., 2 Hr
  % I (inhibition) of prostaglandin E2 levels: 97.9%
  Prostaglandin E2 Levels: 0.1 ± 0.08 ng/mL
Prostaglandin E2; 100 mg/kg p.o., 4 Hr
  % I (inhibition) of prostaglandin E2 levels: 42.4%
  Prostaglandin E2 Levels: 2.36 ± 0.53 ng/mL
Prostaglandin E2; i.v. 25 mg/kg or orally, dog
  PGE2 levels (in words): significantly inhibits
